Measured values reported in patent US9834755B2, “Compositions and methods for enhanced generation of hematopoietic stem/progenitor cells” (FRED HUTCHINSON CANCER RESEARCH CENTER, priority 2011, dated 2017).
Marks after values point to notes of the source that are not given here.

Tests used:
CD34+ cells = conditions: cited from earlier work
CD34^+ CB HSPC [1] = test: SRC frequency by limiting dilution analysis in NSG mice; type: in vivo, human; conditions: Delta1^Ext-IgG 2.5 μg/ml alone, 5 μg/ml with SR1; for No. mice engrafted, Engraftment with ≧0.5% CD34^+ cells / No. mice engrafted, Engraftment with ≧1% CD33^+ cells / No. mice engrafted, Engraftment with ≧1% CD34^+ cells / No. mice engrafted, Engraftment with ≧5% CD33^+ cells: bone marrow aspirate at 2 weeks; for CD33^+ SRC frequency per starting cell, Engraftment with ≧1% CD33^+ cells / CD33^+ SRC frequency per starting cell, Engraftment with ≧5% CD33^+ cells / CD34^+ SRC frequency per starting cell, Engraftment with ≧0.5% CD34^+ cells / CD34^+ SRC frequency per starting cell, Engraftment with ≧1% CD34^+ cells: limiting dilution analysis, maximum likelihood
Excerpt: Human cord blood (CB) samples for research were obtained from normal deliveries under Swedish Medical Center Institutional Review Board (Seattle) approval and after consent was obtained. CB samples were red blood cell depleted (Delaney et al., 2010, Nat Med 16(2):232-236), CD34 enriched using CD34^+ immunomagnetic particles (Miltenyi Biotec), purified with Automacs (Miltenyi Biotec), and cryopreserved. […] Cultures were initiated with 7×10^4 to 1.3×10^5 CD34^+ cells for 25-cm^2 flasks and with 3×10^5 CD34^+ cells for 75-cm^2 flasks. Immunofluorescence analysis was performed as described (Ohishi et al., 2002, J Clin Invest. 110(8):1165-1174) with labeled antibodies: FITC (human CD14, CD33, and Lineage); PE (human CD7, CD14, CD15, CD19, CD90, and CD123); PERCP (human CD34); APC (human CD10, CD45, IL3Ra); PECy7 (mouse CD45.1, human CD34); Alexa Fluor 700 (CD38); APC-eFluor 780 (CD45RA). Transplants were performed in sublethally irradiated (275 rad) NOD-SCID IL-2Rγ-null mice (NSG). In vivo engraftment was assessed by immunofluorescence analysis of human cell subsets (human CD45^+ murine CD45.1). On average, the total number of cells infused was 4.25×10^6/mouse for Delta1^ext-IgG alone, 1.88×10^7/mouse for SR1 alone, and 4.76×10^6/mouse for the combination. Statistical analyses were performed as indicated. For limiting dilution analysis, mice were injected with the cultured progeny of the number of CD34^+ cells indicated and bone marrow aspirates performed at 2 weeks. Two engraftment cut-offs were chosen based on percent engraftment observed in non-limiting transplantation studies. The frequency of SRCs was determined by the method of maximum likelihood with L-CALC software (StemCell Technologies) from the proportions of engrafted recipients (A, B).

CD34^+ CB HSPC [2] = test: Ex vivo culture/expansion of CD34+ cord blood HSPC, cell counts and flow cytometric phenotype; type: cell-based, human; conditions: for CD34 expansion compared to IgG control: 7, 14, 18 and 21 days in culture, alone groups: data not shown
Experimental: (§1) Human cord blood samples for research were obtained from normal deliveries under Swedish Medical Center Institutional Review Board (Seattle) approval and after consent was obtained. The units were incubated in ammonium chloride red blood cell lysis buffer (consisting of 16.6 g NH4Cl, 2 g NaHCO3 and 74.4 mg EDTA per 2L of water) and resuspended in PBS with 2% human AB serum. Cells were incubated with CD34 Microbeads from Miltenyi Biotec and purified with an Automacs (Miltenyi Biotec). Cells were then frozen and thawed at time of use with PBS+1% FBS. Pools of 2 or more cord blood units were used for all experiments. Peripheral blood stem cells (PBSC) were obtained from a single donor and cryopreserved after CD34^+ cell selection.
Cells were cultured for 16 days in non-tissue-cultured-treated tissue culture flasks (25, 75, and 175-cm^2). Flasks were precoated with Delta1^ext-IgG (ligand preparation described in Delaney C. et al., 2005, Blood 106(8):2693-2699; and Varnum-Finney et al., 2000, J. Cell Science 113: 4313-4318), or human control IgG at 2.5 μg/ml and retronectin 5 μg/ml. Delta1^ext-IgG titrations were performed with concentrations of 0.5, 1.25 (for PBSC), 2.5, or 5 μg/ml. Flasks were incubated at 4° C. overnight or 37° C. for 2 hours and then washed with PBS and blocked with PBS 2% BSA for 30 minutes at 37° C. Cells were cultured in StemSpan serum-free expansion medium in the presence of 4 growth factors (IL6 (50 ng/ml), thrombopoietin (50 ng/ml), Flt-3 ligand (50 ng/ml), stem cell factor (50 ng/ml)) or 5 growth factors (4 growth factors plus IL3 (10 ng/ml)). SR-1 was made fresh and added to cells with all feedings at a concentration of 750 nM. Cultures in 25-cm^2 flasks were initiated with between 7×10^4 and 1.3×10^5 CD34^+ cells. Cultures in 75-cm^2 flasks were initiated with 3×10^5 CD34^+ cells. Cells were expanded to larger flasks when they exceeded cell density >1×10^6 cells/ml. Expansions typically occurred on day 7 and 10 of culture. Fresh media with cytokines was added very 3-4 days including the day prior to transplantation.
Immunofluorescence analysis was performed as described (see Ohishi et al., 2002, J Clin Invest. 110(8): 1165-1174), with FITC-labeled antibodies against human CD3, CD14, CD15, CD33, CD34, CD90, phycoerythryin (PE)-labeled antibodies against human CD19, CD56, CD90, CD133, Glycophorin A, CXCR4, PERCP-labeled antibodies against human CD14, CD34, APC-labeled antibodies against human CD45, CD90 and PECy7 labeled antibody against mouse CD45.1.
To determine whether Delta1^Ext-IgG and SR1 in combination were successfully able to expand CD34^+ CB HSPC ex vivo, CD34^+ cell generation, an HSPC enriched population routinely used in clinical application, was assessed at multiple time points in culture as compared to IgG control. CD34^+ CB progenitors were isolated by bead selection and Automacs and then cultured for 21 days in StemSpan serum-free expansion media supplemented with cytokines (TPO, SCF, IL-6, and Flt3-ligand at 50 ng/ml). […] Cells were cultured in the presence of SR1 (750 nM) and Delta1^Ext-IgG (0.5 or 2.5 μg/ml) or an IgG control. The engineered Notch ligand, Delta1^ext-IgG, contains the extracellular domain of Delta1 fused to the Fc portion of human IgG1 and is immobilized on the plastic surface of tissue culture flasks at varying densities. Immobilization of the Fc portion of human IgG1 served as a control construct. […] CD34^+ selected cells were seeded per flask from a pool of 2 CB units. […]

CD34^+ cord blood HSPC = conditions: culturing HSPC with SR1; cited from earlier work
[3] = tested on: mobilized peripheral blood stem cells (mPBSC); test: Ex vivo culture of mobilized peripheral blood stem cells; type: cell-based, human; conditions: mPBSC cultured 16 days
Experimental: as §1
Cells were cultured for 16 days in non-tissue-cultured-treated tissue culture flasks (25, 75, and 175-cm^2). Flasks were precoated with Delta1^ext-IgG (ligand preparation described in Delaney C. et al., 2005, Blood 106(8):2693-2699; and Varnum-Finney et al., 2000, J. Cell Science 113: 4313-4318), or human control IgG at 2.5 μg/ml and retronectin 5 μg/ml. Delta1^ext-IgG titrations were performed with concentrations of 0.5, 1.25 (for PBSC), 2.5, or 5 μg/ml. Flasks were incubated at 4° C. overnight or 37° C. for 2 hours and then washed with PBS and blocked with PBS 2% BSA for 30 minutes at 37° C. […]

HSPC = conditions: culturing HSPC with SR1; cited from earlier work
CD34^+ CB HSPC [4] = test: In vivo repopulation: cultured progeny of CD34+ CB HSPC transplanted into sublethally irradiated NSG mice; design: species or system human; conditions: for human engraftment upon secondary transplantation, average CD45^+: differences not statistically significant
Experimental: Sublethally irradiated NOD-SCID IL-2Rγ-null mice (obtained from an established breeding colony at the Fred Hutchinson Cancer Research Center and approved for use by the Fred Hutchinson Cancer Research Center Institutional Animal Care and Use Committee) were infused with the progeny 10,000 starting CD34^+ cells per mouse via tail vein for cord blood experiments and the progeny of 20,000 for PBSC experiments. Repopulating ability of infused cells was assessed at 2-3 weeks post-transplant by bone marrow aspiration and at 13 weeks by bone marrow harvest.
Cells were cultured as described above and transplanted into sublethally irradiated immunodeficient NSG mice. Total human engraftment was defined as percent of human CD45^+ murine CD45.1^− cells based on bone marrow aspirate at 2 weeks post-transplant. Total myeloid engraftment was defined as percent human CD45^+CD33^+ murine CD45.1 cells on bone marrow aspirate at the same time point.
The progeny of 1×10^4 CD34^+ cells were then transplanted into 10 sublethally irradiated NSG mice per condition and engraftment was assessed by bone marrow aspirate at 2 weeks post-transplant. Total human engraftment was defined as percent of human CD45^+ murine CD45.1^− cells based on bone marrow aspirate at 2 weeks post-transplant. Total myeloid engraftment was defined as percent human CD45^+CD33^+ murine CD45.1^− cells on bone marrow aspirate at the same time point.
Transplants into NSG mice were performed as described above, with the cultured progeny of 1×10^4 CD34^+ cells. Cells were cultured in the presence of SR1, Delta1^Ext-IgG 2.5 μg/ml, or SR1 and Delta1^Ext-IgG (2.5 or 5 μg/ml) for 16 days.
Cells were cultured and transplanted as described above with the progeny of 1×10^4 CD34^+ cells transplanted per mouse. Total human, progenitor cell, myeloid, and lymphoid assessments were performed on bone marrow samples. Bone marrow aspirates were performed in the mice at 2 and 8 weeks post-transplant, and mice were sacrificed for bone marrow harvest at 13 weeks.

[5] = patients, vs concurrent cohort receiving double cord blood transplantation of non-manipulated units; cited from earlier work

Row | Molecule | EC50 (CD34+ cells) [nM] | No. mice engrafted, Engraftment with ≧0.5% CD34^+ cells (CD34^+ CB HSPC [1]; 1000 CD34^+ cells/mouse) | No. mice engrafted, Engraftment with ≧1% CD33^+ cells (CD34^+ CB HSPC [1]; 1000 CD34^+ cells/mouse) | No. mice engrafted, Engraftment with ≧1% CD34^+ cells (CD34^+ CB HSPC [1]; 1000 CD34^+ cells/mouse) | No. mice engrafted, Engraftment with ≧5% CD33^+ cells (CD34^+ CB HSPC [1]; 1000 CD34^+ cells/mouse) | No. mice engrafted, Engraftment with ≧0.5% CD34^+ cells (CD34^+ CB HSPC [1]; 4000 CD34^+ cells/mouse) | No. mice engrafted, Engraftment with ≧1% CD33^+ cells (CD34^+ CB HSPC [1]; 4000 CD34^+ cells/mouse) | No. mice engrafted, Engraftment with ≧1% CD34^+ cells (CD34^+ CB HSPC [1]; 4000 CD34^+ cells/mouse) | No. mice engrafted, Engraftment with ≧5% CD33^+ cells (CD34^+ CB HSPC [1]; 4000 CD34^+ cells/mouse) | No. mice engrafted, Engraftment with ≧0.5% CD34^+ cells (CD34^+ CB HSPC [1]; 20000 CD34^+ cells/mouse) | No. mice engrafted, Engraftment with ≧1% CD33^+ cells (CD34^+ CB HSPC [1]; 20000 CD34^+ cells/mouse) | No. mice engrafted, Engraftment with ≧1% CD34^+ cells (CD34^+ CB HSPC [1]; 20000 CD34^+ cells/mouse) | No. mice engrafted, Engraftment with ≧5% CD33^+ cells (CD34^+ CB HSPC [1]; 20000 CD34^+ cells/mouse) | CD33^+ SRC frequency per starting cell, Engraftment with ≧1% CD33^+ cells (CD34^+ CB HSPC [1]) | CD33^+ SRC frequency per starting cell, Engraftment with ≧5% CD33^+ cells (CD34^+ CB HSPC [1]) | CD34^+ SRC frequency per starting cell, Engraftment with ≧0.5% CD34^+ cells (CD34^+ CB HSPC [1]) | CD34^+ SRC frequency per starting cell, Engraftment with ≧1% CD34^+ cells (CD34^+ CB HSPC [1]) | CD34 expansion compared to IgG control (CD34^+ CB HSPC [2]) | human engraftment upon secondary transplantation, average CD45^+ (CD34^+ CB HSPC [4]) [%] | other results
1 | CC(C)n1cnc2c(NCCc3ccc(O)cc3)nc(-c3cnccc3C#N)nc21 [Example 143] | 4300 |  |  |  |  |  |  |  |  |  |  |  |  |  |  |  |  |  |  | 
2 | Fc1cncc(-c2nc(NCCc3c[nH]c4ccccc34)c3ncn(C4CCOC4)c3n2)c1 (stereo not drawn) [Example 158] | 12 |  |  |  |  |  |  |  |  |  |  |  |  |  |  |  |  |  |  | 
3 | CC(C)n1cnc2c(NCCc3ccc(O)cc3)nc(-c3csc4ccccc34)nc21 [SR1, 4-(2-(2-(benzo[b]thiophen-3-yl)-9-isopropyl-9H-purin-6-ylamino)ethyl)phenol] |  | 1/9 | 3/9 | 1/9 | 1/9 | 2/9 | 5/9 | 1/9 | 1/9 | 7/7 | 7/7 | 6/7 | 7/7 | 1/3868** | 1/10063^## | 1/8495** | 1/13514^## | enhanced CD34 expansion | 0.11 | total nucleated cell (TNC) expansion over IgG control and all Delta1^Ext-IgG conditions (CD34^+ CB HSPC [2]; 7-16 days in culture): enhanced; ex vivo generation of total nucleated cells (TNC) compared to Delta1^Ext-IgG (2.5 μg/ml) or SR1 and Delta1^Ext-IgG (5 μg/ml) combined (CD34^+ CB HSPC [2]; SR1 750 nM, 14 days, p<0.001, p=0.04): significantly enhanced; increase in CD34^+ cells (CD34^+ cord blood HSPC): 50 fold; TNC and CD34^+ cell expansion in vitro [3]: greatest TNC and CD34^+ cell expansion; increase in the number of cells with the ability to repopulate immunodeficient mice (HSPC): 17 fold; rapid repopulation by B-lymphoid cells (percent CD45^+CD33^-CD19^+) in comparison with Delta1^Ext-IgG alone or the combination (CD34^+ CB HSPC [4]; early time point (2 weeks)): significantly enhanced
4 | CC(C)n1cnc2c(NCCc3ccc(O)cc3)nc(-c3cccc4cnccc34)nc21 [Example 145] | 5400 |  |  |  |  |  |  |  |  |  |  |  |  |  |  |  |  |  |  | 
5 | CC(C)n1cnc2c(NCCc3ccc(O)cc3)nc(-c3cncc(F)c3)nc21 [Example 134] | 200 |  |  |  |  |  |  |  |  |  |  |  |  |  |  |  |  |  |  | 
6 | Delta1^Ext-IgG: engineered Notch ligand: extracellular domain of Delta1 fused to the Fc portion of human IgG1, immobilized on tissue culture flasks (protein, left off: a dimerising Fc or GST, engineered Notch ligand: extracellular domain of Delta1 fused to the Fc portion of human IgG1, immobilized on tissue culture flasks) QVWSSGVFELKLQEFVNKKGLLGNRNCCRGGAGPPPCACRTFFRVCLKHYQASVSPEPPCTYGSAVTPVLGVDSFSLPDGGGADSAFSNPIRFPFGFTWPGTFSLIIEALHTDSPDDLATENPERLISRLATQRHLTVGEEWSQDLHSSGRTDLKYSYRFVCDEHYYGEGCSVFCRPRDDAFGHFTCGERGEKVCNPGWKGPYCTEPICLPGCDEQHGFCDKPGECKCRVGWQGRYCDECIRYPGCLHGTCQQPWQCNCQEGWGGLFCNQDLNYCTHHKPCKNGATCTNTGQGSYTCSCRPGYTGATCELGIDECDPSPCKNGGSCTDLENSYSCTCPPGFYGKICELSAMTCADGPCFNGGRCSDSPDGGYSCRCPVGYSGFNCEKKIDYCSSSPCSNGAKCVDLGDAYLCRCQAGFSGRHCDDNVDDCASSPCANGGTCRDGVNDFSCTCPPGYTGRNCSAPVSRCEHAPCHNGATCHERGHRYVCECARGYGGPNCQFLLPELPPGPAVVDLTEKLEGQGGPFPW |  | 0/9 | 2/9 | 0/9 | 0/9 | 1/9 | 9/9 | 0/9 | 3/9 | 7/7 | 7/7 | 6/7 | 6/7 | 1/1719* | 1/11314^# | 1/11739* | 1/19121^# | enhanced CD34 expansion | 0.22 | reduction in time to neutrophil engraftment [5]: 50%; TNC generation with increasing densities of Delta1^Ext-IgG (CD34^+ CB HSPC [2]; day 16, SR1 with Delta1^Ext-IgG 0, 0.5, 2.5 or 5 μg/ml): decreased TNC generation in a stepwise manner
